In article PMC5464768, “ER retention is imposed by COPII protein sorting and attenuated by 4-phenylbutyrate” (eLife, 2017):
Where two headings read alike, the source gives them in different places.

What was measured:
human Sec24a = molecular target: T1, human Sec24a (Homo sapiens, UniProt O95486); assay: Fluorescence polarization competition binding assay (displacement of 5-Fam-[…]); conditions: fluorescence polarization at 22°C; 5 µM probe, 22 µM Sec24a; ± standard error of fit; read-out: IC50, displacement of fluorescent probe 5-Fam-[…] from Sec24a
T1 construct: His6 (TEV-cleavable) (N, cleaved yes); made in house; host or cells: High Five insect cells (baculovirus)
T1 sequence (O95486 341-1093): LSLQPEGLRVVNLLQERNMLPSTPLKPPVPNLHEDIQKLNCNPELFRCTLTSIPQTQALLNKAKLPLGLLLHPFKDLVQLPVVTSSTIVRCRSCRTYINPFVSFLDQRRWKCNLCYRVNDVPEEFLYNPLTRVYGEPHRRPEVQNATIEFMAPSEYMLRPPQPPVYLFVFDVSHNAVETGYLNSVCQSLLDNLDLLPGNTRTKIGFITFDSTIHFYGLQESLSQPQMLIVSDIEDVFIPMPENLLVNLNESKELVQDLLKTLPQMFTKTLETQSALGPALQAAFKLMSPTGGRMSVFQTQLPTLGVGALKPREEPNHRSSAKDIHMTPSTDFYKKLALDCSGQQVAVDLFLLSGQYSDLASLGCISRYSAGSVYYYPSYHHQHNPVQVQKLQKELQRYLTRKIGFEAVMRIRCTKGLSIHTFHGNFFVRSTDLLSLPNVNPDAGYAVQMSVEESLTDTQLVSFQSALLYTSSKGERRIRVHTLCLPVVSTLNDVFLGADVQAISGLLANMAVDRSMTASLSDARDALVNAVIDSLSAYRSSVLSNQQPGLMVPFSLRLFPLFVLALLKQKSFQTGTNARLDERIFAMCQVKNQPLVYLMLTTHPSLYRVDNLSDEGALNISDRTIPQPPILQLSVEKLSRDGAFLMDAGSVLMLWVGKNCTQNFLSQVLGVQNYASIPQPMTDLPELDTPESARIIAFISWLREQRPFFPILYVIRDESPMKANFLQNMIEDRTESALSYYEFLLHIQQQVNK

[1] = tested on: CHO cells expressing G544V-mutant LDL receptor; assay: Restoration of trafficking of mutant LDL receptor in cells (immunoblot for 160 kDa mature glycosylated form); assay type: cell-based; conditions: for EC50: ± standard error of fit
Procedure: (§1) T-Rex-CHO-K1 cloned cell lines expressing wild-type and mutant LDL receptor were cultured as described ([Sørensen et al., 2006]; [Tveten et al., 2007]), and according to the manufacturer’s protocols (Thermo Fisher Scientific; CHO cell Lot No. 1610593). The expression in CHO cells of G544V-mutant or wild-type LDL receptor protein was induced with 1 µg/mL tetracycline for 24 hr prior to experiments with 4-PBA or 4-PBA analogs ([Tveten et al., 2007]). To compare pharmacological potency of 4-PBA analogs, cells were incubated with the compounds for 2 hr at 37°C in 12-well 22 mm plates (Corning Costar #3513). For experiments concerning the extracellular secretion of GRP94 (Figure 5), the incubations with 4-PBA were extended to 24 hr. Cells were broken in lysis buffer (1% (v/v) Triton X-100, 150 mM NaCl, 10 mM EDTA, 50 mM Tris-HCl pH 7.5) and cleared by centrifugation (15,000 g for 15 min). Cellular protein concentration was measured using ‘Protein Assay Kit II’ (Bio-Rad) with bovine serum albumin as standard. Lysates were added to Laemmli sample buffer (New England BioLabs) containing 130 mM dithiothreitol and heated for 15 min at 55°C. Cell medium (containing secreted proteins) was added to Laemmli sample buffer containing 5% β-mercaptoethanol and boiled for 5 min. Samples were run on 4–15% Tris/HCl Criterion gels (Bio-Rad) followed by immunoblotting.
Proteins were electrotransferred from SDS-PAGE gels onto Immun-Blot low fluorescence PVDF membrane (Bio-Rad) and blocked using TBST (5% BioRad Blocker in 25 mM Tris-HCl pH 7.4, 150 mM NaCl, 0.05% (v/v) Tween 20). Membranes were incubated at 4°C overnight with primary antibodies in TBST followed by incubation with horseradish peroxidase-conjugated secondary antibodies. Chemiluminescence signals were generated by incubation with ECL Prime Western Blotting detection reagent (GE Healthcare #RPN2236). […] Chemiluminescence signals were detected using a ChemiDoc MP Imaging System and acquired with Image Lab 5.0 software (Bio-Rad). Quantification of protein band intensities was performed using Image Gauge software Version 4.1 (Fujifilm), including background correction of the raw image data.
Chemiluminescence signals from western blots for the glycosylated (160 kDa) form of G544V-mutant LDL receptor were quantified as a percentage of total LDL receptor protein (glycosylated + unglycosylated bands). Data at high concentrations of 4-PBA analogs, which show inhibition of LDL receptor trafficking, were omitted. Data from individual experiments were normalized (to obtain maximal response = 100%), so that data from replicate experiments (n = 4–5) could be averaged. Logistic fitting to the dose-response data was carried out with program Ultrafit (Elsevier Biosoft).

B site of Sec24a = molecular target: T2, B site of Sec24a (Homo sapiens, UniProt O95486); assay: X-ray crystallography of ligand-soaked Sec23a/Sec24a•Sec22b crystals; assay type: binding; conditions: crystals soaked with 4-PBA at 1, 15 and 50 mM or with 5 mM ΦC signal peptide
T2 construct: His6 (TEV-cleavable) (N, cleaved yes); made in house; host or cells: High Five insect cells (Sec23a/Sec24a); E. coli (Sec22b)
T2 sequence (Q15436 whole entry partner, one chain of several): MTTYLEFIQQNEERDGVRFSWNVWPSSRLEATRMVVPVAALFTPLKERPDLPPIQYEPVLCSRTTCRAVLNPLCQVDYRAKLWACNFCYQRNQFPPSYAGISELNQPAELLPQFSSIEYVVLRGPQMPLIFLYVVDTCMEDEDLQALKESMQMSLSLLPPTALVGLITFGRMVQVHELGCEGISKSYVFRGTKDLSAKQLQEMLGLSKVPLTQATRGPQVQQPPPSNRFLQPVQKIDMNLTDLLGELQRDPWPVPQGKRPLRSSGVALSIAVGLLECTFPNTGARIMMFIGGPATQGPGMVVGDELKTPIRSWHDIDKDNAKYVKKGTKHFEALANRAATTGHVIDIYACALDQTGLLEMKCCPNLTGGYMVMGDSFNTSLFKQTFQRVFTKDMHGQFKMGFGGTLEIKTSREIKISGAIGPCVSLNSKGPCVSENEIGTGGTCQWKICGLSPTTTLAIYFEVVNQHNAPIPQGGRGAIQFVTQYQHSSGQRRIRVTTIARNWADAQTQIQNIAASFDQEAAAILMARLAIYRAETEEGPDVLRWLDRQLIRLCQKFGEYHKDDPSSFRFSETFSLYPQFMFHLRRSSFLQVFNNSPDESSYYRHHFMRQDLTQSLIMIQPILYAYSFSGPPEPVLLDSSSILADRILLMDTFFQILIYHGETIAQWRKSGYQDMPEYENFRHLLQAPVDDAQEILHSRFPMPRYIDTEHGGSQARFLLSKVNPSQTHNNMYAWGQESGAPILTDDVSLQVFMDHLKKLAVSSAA
T2 sequence (O75396 1-195 partner limits assumed, one chain of several): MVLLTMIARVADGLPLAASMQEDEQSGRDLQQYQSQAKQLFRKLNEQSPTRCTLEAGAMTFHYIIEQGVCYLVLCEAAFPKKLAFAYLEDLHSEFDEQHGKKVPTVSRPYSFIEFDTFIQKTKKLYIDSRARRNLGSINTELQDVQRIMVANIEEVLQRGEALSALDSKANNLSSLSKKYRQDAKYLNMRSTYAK
Procedure: The Sec23a/Sec24a•Sec22b complex was crystallized as described previously ([Mancias and Goldberg, 2007]) from a solution comprising 10% (w/v) PEG 4000, 500 mM Na acetate and 50 mM Tris-HCl pH 7.9. Since acetate ions compete with ligand binding at the B site, crystals were transferred into a soaking buffer of 10% (w/v) PEG 4000, 600 mM NaCl, 50 mM Tris-HCl buffer, pH 7.9. (Two acetate ions are observed bound to B-site arginine residues in electron density maps calculated from Sec23a/Sec24a•Sec22b crystallographic data, PDB 2NUT). To this was added 4-PBA (0–50 mM) or 5 mM ΦC signal peptide, and ligand soaking proceeded for five hours at 22°C. Crystals were then transferred to an equivalent ligand-containing buffer with additional 24% ethylene glycol cryo-protectant, and were flash frozen in liquid nitrogen. Crystals treated in this manner diffracted synchrotron X-rays to 2.5–2.8 Å resolution.
X-ray diffraction data were collected at 0.979 Å wavelength on beamline ID-24C or ID-24E of the Advanced Photon Source, Argonne National Laboratory. Data were processed with the program HKL2000 ([Otwinowski and Minor, 1997]; Tables 1 and 2). Structure refinement was carried out using Phenix ([Adams et al., 2010]), initially by rigid-body improvement, followed by positional refinement, based on the published coordinates of Sec23a/Sec24a•Sec22b (PDB 2NUT; [Mancias and Goldberg, 2007]). […]

[2] = tested on: CHO cells (stressed, expressing G544V-mutant LDL receptor, and unstressed wild-type); assay: Extracellular secretion of GRP94 from CHO cells; assay type: cell-based; conditions: 24 hr at 37°C
Procedure: as §1

[3] = molecular target: T3, COPII coat (Sec23a/24d) packaging of p24 proteins and ERGIC-53 (Homo sapiens, UniProt O94855); assay: In vitro COPII vesicle budding assay with permeabilized CHO (T-Rex-CHO-K1) cells; assay type: biochemical, H. sapiens; conditions: 10 mM 4-PBA; corrected for budding yield
T3 construct: Sec23a/Sec24d (full-length protein) for COPII budding assays; His6 (TEV-cleavable) (N); made in house; host or cells: High Five insect cells (Sec23a/24d, Sec13a/31a); E. coli BL21(DE3) (Sar1a); added to digitonin-permeabilized T-Rex-CHO-K1 cells
T3 sequence (O94855 whole entry): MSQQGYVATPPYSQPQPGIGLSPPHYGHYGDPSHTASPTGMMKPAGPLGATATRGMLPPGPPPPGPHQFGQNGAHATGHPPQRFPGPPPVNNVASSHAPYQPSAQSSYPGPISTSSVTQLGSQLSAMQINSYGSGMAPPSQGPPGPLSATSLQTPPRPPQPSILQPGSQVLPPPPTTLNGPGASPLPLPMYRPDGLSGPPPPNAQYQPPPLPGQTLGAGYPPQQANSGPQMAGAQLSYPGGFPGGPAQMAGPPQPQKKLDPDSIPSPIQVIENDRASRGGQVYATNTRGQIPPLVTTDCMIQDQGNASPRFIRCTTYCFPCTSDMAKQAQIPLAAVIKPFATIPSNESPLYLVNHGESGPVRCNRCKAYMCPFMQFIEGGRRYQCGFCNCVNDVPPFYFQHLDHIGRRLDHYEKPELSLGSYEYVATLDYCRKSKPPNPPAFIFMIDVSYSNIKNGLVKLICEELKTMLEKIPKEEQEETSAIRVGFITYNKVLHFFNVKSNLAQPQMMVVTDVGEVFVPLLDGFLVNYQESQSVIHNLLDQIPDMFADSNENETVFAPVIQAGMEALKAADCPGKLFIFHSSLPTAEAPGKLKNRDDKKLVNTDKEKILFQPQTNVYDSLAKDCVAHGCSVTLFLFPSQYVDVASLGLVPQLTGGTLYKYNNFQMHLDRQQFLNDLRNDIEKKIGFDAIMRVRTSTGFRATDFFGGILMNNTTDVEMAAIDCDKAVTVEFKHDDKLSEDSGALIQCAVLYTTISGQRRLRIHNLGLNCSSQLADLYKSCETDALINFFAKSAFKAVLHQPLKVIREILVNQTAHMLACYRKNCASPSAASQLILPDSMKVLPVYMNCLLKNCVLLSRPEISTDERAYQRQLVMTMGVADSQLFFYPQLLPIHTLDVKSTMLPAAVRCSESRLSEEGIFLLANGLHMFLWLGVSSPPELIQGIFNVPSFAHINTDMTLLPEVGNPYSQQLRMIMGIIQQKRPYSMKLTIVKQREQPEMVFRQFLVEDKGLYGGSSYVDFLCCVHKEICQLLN
T3 sequence (Q15436 whole entry partner): as the sequence (Q15436 whole entry partner, one chain of several) above
Procedure: In vitro COPII budding reactions used permeabilized cells prepared from the T-Rex-CHO-K1 parent line and from the clone that expresses mutant LDL receptor. Permeabilization was carried out as described ([Mancias and Goldberg, 2008]) with modifications. Two culture dishes (150 mm) of cells were prepared with cells at no greater than 60% confluence. Cells were washed with 20 ml PBS at 37°C and then trypsinized with 2 ml of Trypsin-EDTA (0.05%, Gibco) for 1 min at 37°C; 100 µl of Soybean Trypsin Inhibitor (2 mg/ml; Sigma) was added to each culture plate. To this was added 5.5 ml ice-cold KHM buffer (110 mM KOAc, 20 mM Hepes pH 7.2, 2 mM magnesium acetate) per plate, and cells were transferred to a 15 ml Falcon tube and pelleted gently (250 g for 3 min at 4°C). The supernatant was aspirated and the cells resuspended in 6 ml ice-cold KHM buffer. To permeabilize the cells, 6 µl digitonin stock solution (40 mg/ml in dimethyl sulfoxide) was added, cells were mixed by inversion and incubated on ice for 5 min. To terminate permeabilization, cells were diluted to 14 ml with KHM buffer and immediately pelleted at 250 g for 3 min at 4°C. […] The protein concentration was measured using protein assay kit (Bio-Rad) with BSA as standard; routinely, the measurement is in the range 4–5 mg/ml. […]

[4] = Cricetulus griseus, CHO, 2 h, read-out: EC50, acquisition of mutant LDL receptor glycosylation (restoration of trafficking), CHO cells expressing G544V-mutant LDL receptor, 2 hr at 37°C

SMILES | IC50 (human Sec24a) | EC50 [1, 4] | fraction of mutant LDL receptor with restored trafficking ([1]; 10 mM 4-PBA applied to cells) | EC50 ([1]; read-out: EC50, acquisition of mutant LDL receptor glycosylation (restoration of trafficking), CHO cells expressing G544V-mutant LDL receptor, 2 hr at 37°C) | binding to Sec24a in crystals (difference Fourier maps / residual electron density) (B site of Sec24a) | cell lysis (GAPDH marker) and loss of GRP94 secretion ([2]; 45 mM 4-PBA) | concentration giving maximal secretion of GRP94 ([2]; stressed and unstressed cells) | reduction in the packaging rate of p24 proteins and ERGIC-53 into COPII vesicles [3]
O=C(O)CCc1ccccc1 [3-PPA, 3-phenylpropionate] | 4.11 ± 0.34 mM | 7.48 ± 0.68 mM |  |  |  |  |  | 
O=C(O)CCCc1ccccc1 [4-PBA, 4-phenylbutyrate] | 3.66 ± 0.22 mM | 6.4 mM | ≤ 25% | 6.37 ± 0.5 mM | clear evidence for binding | cell lysis is detected | 20 mM | 50%
O=C(O)CCCCc1ccccc1 [5-PVA, 5-phenylvalerate] | 0.99 ± 0.08 mM | 3.36 ± 0.42 mM |  |  |  |  |  | 
O=C(O)CCCc1ccc(O)cc1 [Hydroxy-PBA, 4-(4-hydroxyphenyl)butyrate] | 5.04 ± 0.69 mM | 10.6 ± 0.4 mM |  |  |  |  |  | 
O=C(O)CCc1ccc(O)cc1 [Hydroxy-PPA, 3-(4-hydroxyphenyl)propionate] | 9.22 ± 0.94 mM | 21.7 ± 1.03 mM |  |  |  |  |  | 
COc1ccc(CCCC(=O)O)cc1 [Methoxy-PBA, 4-(4-methoxyphenyl)butyrate] | 4.14 ± 0.7 mM | 8.63 ± 0.98 mM |  |  |  |  |  | 
Cc1ccc(CCCC(=O)O)cc1 [Tolyl-BA, 4-(4-tolyl)butyrate] | 1.7 ± 0.16 mM | 4.89 ± 0.24 mM |  |  |  |  |  | 
